# Experimental data from US20260284030A1, “METHODS OF TREATING HEART FAILURE” (THE CHILDREN'S MEDICAL CENTER CORPORATION, priority 2022, published 2026).
# Key:
# [1] = system: arthritis in a mouse model; conditions: prophylactic treatment; cited from earlier work
# [2] = system: NET formation; assay: Neutrophil isolation and NETosis assay; format: in vivo, mouse; conditions: CIA mice; n=4; p=0.03
# Excerpt: (§1) DBA/1 J mice were purchased from Jackson Laboratory. All mice were kept specific pathogen free. Experimental protocols were approved by the Institutional Animal Care and Use Committee of Boston Children's Hospital (Protocol number: 20-01-4096R). To conduct a time-course study investigating onset and persistence of the cardiac dysfunction in DBA/1 J, the following groups were studied: DBA/1 J with CIA, DBA/1 J age-matched wild type, DBA/1 J with CIA treated with PAD4 inhibitor, DBA/1 J with CIA treated with 0.5% Methylcellulose (vehicle of the PAD4 inhibitor). The PAD4 specific inhibitor JBI-589 was provided by Jubilant Therapeutics (JBI-589, (R)-(3-aminopiperidin-1-yl)(2-(1-(4-fluorobenzyl)-1H-indol-2-yl)-3-methylimidazo[1,2-a]pyridin-7-yl)methanone). Mice received JBI-589 at a dose of 10 mg/kg via oral gavage for 26 consecutive days. JBI-589 was given in suspension formulation prepared using Tween-80 and 0.5% methyl cellulose. For the PAD4 inhibitor trial, mice were paired depending on their RA severity score and randomly allocated to treatment or control group. All recurring events including animal scoring and administration of inhibitor was done at similar times during the day. All groups were age and sex matched and were fed ad libitum with free access to water. All procedures conform with the NIH Guide for the Care and Use of Laboratory Animals. […]
# [3] = system: primary tumor and metastasis; conditions: cancer; cited from earlier work
# [4] = system: DBA/1 J mice with CIA; assay: Collagen induced arthritis (CIA) model, arthritis severity scoring; format: in vivo, mouse; conditions: for arthritis score: CIA mice, 10 mg/kg oral gavage once daily from day 30, n=8
# Excerpt: (§2) DBA/1 J mice were purchased from Jackson Laboratory. All mice were kept specific pathogen free. Experimental protocols were approved by the Institutional Animal Care and Use Committee of Boston Children's Hospital (Protocol number: 20-01-4096R). To conduct a time-course study investigating onset and persistence of the cardiac dysfunction in DBA/1 J, the following groups were studied: DBA/1 J with CIA, DBA/1 J age-matched wild type, DBA/1 J with CIA treated with PAD4 inhibitor, DBA/1 J with CIA treated with 0.5% Methylcellulose (vehicle of the PAD4 inhibitor). The PAD4 specific inhibitor JBI-589 was provided by Jubilant Therapeutics (JBI-589, (R)-(3-aminopiperidin-1-yl)(2-(1-(4-fluorobenzyl)-1H-indol-2-yl)-3-methylimidazo[1,2-a]pyridin-7-yl)methanone). Mice received JBI-589 at a dose of 10 mg/kg via oral gavage for 26 consecutive days. JBI-589 was given in suspension formulation prepared using Tween-80 and 0.5% methyl cellulose. For the PAD4 inhibitor trial, mice were paired depending on their RA severity score and randomly allocated to treatment or control group. All recurring events including animal scoring and administration of inhibitor was done at similar times during the day. All groups were age and sex matched and were fed ad libitum with free access to water. All procedures conform with the NIH Guide for the Care and Use of Laboratory Animals. Experimental protocols were approved by the Institutional Animal Care and Use Committee of Boston Children's Hospital (Protocol number: 20-01-4096R).
# DBA/1 J mice aged 8-9 weeks were immunized with an emulsion of 50 μl CFA (Chondrex, Inc.; Catalog no. 7023) and 50 μl of bovine type II collagen (Chondrex, Inc.; catalog no. 20012) injected intra-dermally into the base of the tail on day 0. On day 21, a booster immunization of type II collagen with Freund's incomplete adjuvant (IFA) (catalog no. 7002; Chondrex) was administered intra-dermally at a site proximal to the first injection site. Mice were assessed for development of arthritis using the semi-quantitative, mouse arthritis scoring system provided by Chondrex (chondrex.com). […]
# [5] = system: DBA/1 J mice with CIA; assay: Peripheral blood counts (circulating neutrophils); format: in vivo, mouse; conditions: any timepoint
# Excerpt: as §1, with “day.” for “day. All groups were age and sex matched and were fed ad libitum with free access to water. All procedures conform with the NIH Guide for the Care and Use of Laboratory Animals.”
# Blood was collected from anesthetized mice via the retroorbital sinus into EDTA-coated capillary tubes and was analyzed by a Hemavet 950FS (Drew Scientific) for complete blood counts. […]
# [6] = system: DBA/1 J mice with CIA; assay: Immunostaining of LV cryosections (Collagen I, Ly6G/H3Cit, VWF, TGF-β, alpha smooth muscle actin); format: in vivo, mouse
# Excerpt: as §2
# Cryosections of 8-μm were fixed in 4% paraformaldehyde, permeabilized with 0.1% Triton, blocked in 3% BSA, and incubated overnight at 4° C. with the following primary antibodies: Anti-Collagen I (Abcam; ab21286); anti-Ly6G (clone 1A8; BioLegend); anti-H3Cit (Abcam; ab5103); anti-CD31 (BD Pharmingen; 553370); anti-VWF (DakoCytomation; P0226); anti-CD42b (Emfret; M040-0); anti-CD45 (Abcam; ab154885); anti-TGF beta (Abcam; ab66043); anti-alpha smooth muscle actin (Abcam; ab5694), and anti-CD68 (Abcam; ab53444). […]
# [7] = Body weight of CIA mice; format: in vivo, mouse; conditions: day 56, n=8
# Excerpt: as §1
# [8] = system: DBA/1 J mice with CIA; assay: Echocardiography of LV function and geometry in CIA mice; format: in vivo, mouse; conditions: n=8
# Excerpt: as §1, with “water.” for “water. All procedures conform with the NIH Guide for the Care and Use of Laboratory Animals.”
# B-Mode, M-mode, and Doppler echocardiography were performed in DBA/1 J mice with CIA, DBA/1 J mice with CIA treated with PAD4 inhibitor or saline administration and age-matched DBA/1 J mice at day 0, day 25, day 45 and day 56 for time-course analysis of cardiac function. […] Body temperature was regulated through a heat pad and heart rate measured with an electrocardiogram, both were kept consistent between experimental groups (37° Celsius and 400-500 bpm). Echocardiography images were recorded using a Vevo-3100 imaging system with a 25-55-MHz linear probe (MX550D; VisualSonics, Toronto, Canada). Percentage of ejection fraction was calculated in parasternal long-axis view. M-mode was measured at the papillary muscle level in the short-axis view. […]
smiles,measurement,setting,value
"Cc1c(-c2cc3ccccc3n2Cc2ccc(F)cc2)nc2cc(C(=O)N3CCC[C@@H](N)C3)ccn12 [JBI-589, (R)-(3-aminopiperidin-1-yl)(2-(1-(4-fluorobenzyl)-1H-indol-2-yl)-3-methylimidazo[1,2-a]pyridin-7-yl)methanone]",effect on arthritis,[1],alleviates arthritis
same,NET formation,[2],reduced
same,neutrophil recruitment,[3],blocking neutrophil recruitment into the primary tumor and metastasis
same,arthritis score,[4]; Day 36,5±0.8
same,arthritis score,"[4]; day 44, median (quartiles)",9 (7-11)
same,effect on RA (arthritis),[4]; twice daily regime (unpublished data),significantly inhibits RA
same,number of circulating neutrophils vs vehicle,[5],no difference
same,"collagen type 1 deposition in the LV, lower than the vehicle treated control","[6]; CIA mice treated 26 days, n=5, p=0.02",5 times
same,myofibroblast concentration (alpha-smooth-muscle actin),"[6]; CIA mice, n=5, p=0.02",reduced
same,deposition of TGF-β in heart tissue,"[6]; CIA mice, n=6, p=0.003",reduced
same,body weight (health parameter),[7],improved
same,diastolic function as reflected by the E/A ratio,"[8]; CIA mice treated 26 consecutive days, 10 mg/kg once daily oral",comparable to healthy mice
same,"E/A ratio, higher than the placebo CIA group","[8]; CIA mice treated 26 consecutive days, 10 mg/kg once daily oral, p<0.0001",40%
same,systolic left ventricular function vs vehicle,"[8]; CIA mice treated 26 days, p=0.09",no difference
